Results taken from PubChem BioAssay (NCI).
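Step 1: Grow cells in 96-well plates. Step 2: Expose to compound for 48 hours at 5 concentrations. Step 3: Interpolate endpoints linearly; if unreached, use highest concentration. GI50 marks 50% less growth. At the TGI there is no net growth.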

Columns and labels:
Assay in all cases: NCI-60 cell line screen, 48 h
[1] = tested on: 786-0 renal
[2] = tested on: A498 renal
[3] = tested on: A549 NSCLC
[4] = tested on: CAKI-1 renal
[5] = tested on: CCRF-CEM leukemia
[6] = tested on: COLO 205 colon
[7] = tested on: DU-145 prostate
[8] = tested on: EKVX NSCLC
[9] = tested on: HCT-116 colon
[10] = tested on: HCT-15 colon
[11] = tested on: HL-60(TB) leukemia
[12] = tested on: HOP-62 NSCLC
[13] = tested on: HOP-92 NSCLC
[14] = tested on: HS 578T breast
[15] = tested on: IGROV1 ovarian
[16] = tested on: K-562 leukemia
[17] = tested on: KM12 colon
[18] = tested on: LOX IMVI melanoma
[19] = tested on: M14 melanoma
[20] = tested on: MALME-3M melanoma
[21] = tested on: MCF7 breast
[22] = tested on: MDA-MB-231 breast
[23] = tested on: MDA-MB-435
[24] = tested on: MOLT-4 leukemia
[25] = tested on: NCI-H226 lung
[26] = tested on: NCI-H23 lung
[27] = tested on: NCI-H460 lung
[28] = tested on: NCI-H522 lung
[29] = tested on: NCI/ADR-RES ovarian
[30] = tested on: OVCAR-3 ovarian
[31] = tested on: OVCAR-4 ovarian
[32] = tested on: OVCAR-8 ovarian
[33] = tested on: PC-3 prostate
[34] = tested on: RPMI-8226 leukemia
[35] = tested on: RXF 393 renal
[36] = tested on: SF-268 CNS
[37] = tested on: SF-295 CNS
[38] = tested on: SF-539 CNS
[39] = tested on: SK-MEL-2 melanoma
[40] = tested on: SK-MEL-28 melanoma
[41] = tested on: SK-MEL-5 melanoma
[42] = tested on: SK-OV-3 ovarian
[43] = tested on: SN12C renal
[44] = tested on: SNB-19 CNS
[45] = tested on: SR leukemia
[46] = tested on: SW-620 colon
[47] = tested on: T-47D breast
[48] = tested on: TK-10 renal
[49] = tested on: U251 CNS
[50] = tested on: UACC-257 melanoma
[51] = tested on: UACC-62 melanoma
[52] = tested on: UO-31 renal
[53] = tested on: ACHN renal
[54] = tested on: BT-549 breast
[55] = tested on: HCC-2998 colon
[56] = tested on: HT29 colon
[57] = tested on: OVCAR-5 ovarian

Molecule `N#CC(C#N)=C1Nc2ccccc2S1` has a GI50 [1] of 41 µM, a TGI [1] greater than 100 µM and a GI50 [2] of 26.6 µM. For the same molecule, the TGI [2] was 55.5 µM, the GI50 [3] was 23.5 µM and the TGI [3] was greater than 100 µM. It also gave a GI50 [4] of 24.5 µM, a TGI [4] of 70.9 µM and a GI50 [5] of 45.5 µM. For the same molecule, the TGI [5] was greater than 100 µM, the GI50 [6] was 29.5 µM and the TGI [6] was greater than 100 µM. The GI50 [7] was 49.2 µM, the TGI [7] was greater than 100 µM and the GI50 [8] was 34.7 µM. It also gave a TGI [8] greater than 100 µM, a GI50 [9] of 37.7 µM and a TGI [9] greater than 100 µM. The GI50 [10] was 48 µM, the TGI [10] was greater than 100 µM and the GI50 [11] was 30.1 µM. It also gave a TGI [11] greater than 100 µM, a GI50 [12] of 40.3 µM and a TGI [12] greater than 100 µM. The GI50 [13] was 2.59 µM, the TGI [13] was 18.1 µM and the GI50 [14] was 34.1 µM. For the same molecule, the TGI [14] was 85.9 µM, the GI50 [15] was 35.9 µM and the TGI [15] was greater than 100 µM. It also gave a GI50 [16] of 38.3 µM, a TGI [16] greater than 100 µM and a GI50 [17] of 34.8 µM. It also gave a TGI [17] greater than 100 µM, a GI50 [18] of 42.5 µM and a TGI [18] greater than 100 µM. For the same molecule, the GI50 [19] was 22.6 µM, the TGI [19] was greater than 100 µM and the GI50 [20] was 7.62 µM. It also gave a TGI [20] of 34.5 µM, a GI50 [21] of 33.5 µM and a TGI [21] greater than 100 µM. The GI50 [22] was 43.4 µM, the TGI [22] was greater than 100 µM and the GI50 [23] was 30.3 µM. It also gave a TGI [23] greater than 100 µM, a GI50 [24] of 33.3 µM and a TGI [24] greater than 100 µM. The GI50 [25] was 27.3 µM, the TGI [25] was 76.8 µM and the GI50 [26] was 22.4 µM. It also gave a TGI [26] of 45.9 µM, a GI50 [27] of 32 µM and a TGI [27] greater than 100 µM. The GI50 [28] was 32.4 µM, the TGI [28] was greater than 100 µM and the GI50 [29] was 23.8 µM. For the same molecule, the TGI [29] was 69.5 µM, the GI50 [30] was 20.3 µM and the TGI [30] was 62.9 µM. For the same molecule, the GI50 [31] was 87 µM, the TGI [31] was greater than 100 µM and the GI50 [32] was 35.4 µM. The TGI [32] was greater than 100 µM, the GI50 [33] was 40.1 µM and the TGI [33] was greater than 100 µM. The GI50 [34] was 33.6 µM, the TGI [34] was 79.7 µM and the GI50 [35] was 36 µM. For the same molecule, the TGI [35] was greater than 100 µM, the GI50 [36] was 27.8 µM and the TGI [36] was greater than 100 µM. The GI50 [37] was 24.3 µM, the TGI [37] was 69 µM and the GI50 [38] was 36.3 µM. For the same molecule, the TGI [38] was 93.7 µM, the GI50 [39] was 28.5 µM and the TGI [39] was 56.2 µM. For the same molecule, the GI50 [40] was 27.7 µM, the TGI [40] was 77.4 µM and the GI50 [41] was 22.7 µM. It also gave a TGI [41] of 44.8 µM, a GI50 [42] of 31.5 µM and a TGI [42] greater than 100 µM. The GI50 [43] was 38.2 µM, the TGI [43] was greater than 100 µM and the GI50 [44] was 38.2 µM. The TGI [44] was greater than 100 µM, the GI50 [45] was 25.6 µM and the TGI [45] was 51.9 µM. For the same molecule, the GI50 [46] was 40.1 µM, the TGI [46] was greater than 100 µM and the GI50 [47] was 35.8 µM. The TGI [47] was greater than 100 µM, the GI50 [48] was 29.2 µM and the TGI [48] was 82.1 µM. It also gave a GI50 [49] of 43.6 µM, a TGI [49] greater than 100 µM and a GI50 [50] of 21.4 µM. For the same molecule, the TGI [50] was 68.7 µM, the GI50 [51] was 37.2 µM and the TGI [51] was greater than 100 µM. The GI50 [52] was 39.1 µM and the TGI [52] was greater than 100 µM.
Work on `Cn1c2ccccc2c2ccc3c(c21)C(=O)c1ccccc1C3=O` yielded a TGI [1] of 47.3 µM, a TGI [3] greater than 100 µM and a TGI [53] of 69.2 µM. For the same molecule, the TGI [54] was 50.9 µM, the TGI [4] was 67 µM and the TGI [5] was 13.1 µM. For the same molecule, the TGI [6] was 82 µM, the TGI [7] was greater than 100 µM and the TGI [8] was greater than 100 µM. The TGI [55] was greater than 100 µM, the TGI [9] was 40.6 µM and the TGI [10] was 50.2 µM. For the same molecule, the TGI [11] was 10.8 µM, the TGI [12] was 45.5 µM and the TGI [13] was 54.2 µM. It also gave a TGI [14] of 46.6 µM, a TGI [56] of 39.5 µM and a TGI [15] of 31.4 µM. For the same molecule, the TGI [16] was 32.2 µM, the TGI [17] was greater than 100 µM and the TGI [18] was 29.4 µM. The TGI [19] was 83 µM, the TGI [20] was 24.5 µM and the TGI [22] was 64.2 µM. For the same molecule, the TGI [23] was 32.2 µM, the TGI [25] was greater than 100 µM and the TGI [26] was 33.5 µM. For the same molecule, the TGI [28] was 29.6 µM, the TGI [29] was 45.4 µM and the TGI [30] was 26.8 µM. It also gave a TGI [31] of 69.7 µM, a TGI [57] greater than 100 µM and a TGI [32] of 61.6 µM. The TGI [33] was 33.2 µM, the TGI [34] was 36.1 µM and the TGI [35] was 32 µM. The TGI [36] was 66.6 µM, the TGI [37] was 42 µM and the TGI [38] was 41.2 µM. The TGI [40] was 29.4 µM, the TGI [41] was 30.2 µM and the TGI [42] was 61.9 µM. It also gave a TGI [43] of 73.1 µM, a TGI [44] greater than 100 µM and a TGI [45] of 13.9 µM. For the same molecule, the TGI [46] was greater than 100 µM, the TGI [47] was 49.8 µM and the TGI [48] was 39.1 µM. The TGI [49] was 34.9 µM, the TGI [50] was 67.5 µM and the TGI [51] was 38.3 µM. For the same molecule, the TGI [52] was greater than 100 µM.
